The source made the active and inactive calls.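 Rule for the calls: active = compounds giving half or more protection of infected cells from virus-caused growth loss, again on retest; inactive = the rest.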 Where a SMILES comes first, the peptide text is derived from it. [ ]: non-standard residue; d: D form. The star is where a group is joined. ξ: configuration not given here. Dnp = O=[N+]([O-])c1ccc(*)c([N+](=O)[O-])c1; Bz = O=C(c1ccccc1)*; ξC = NC(CS)C(=O)O
System: CEM cells HIV-1 protection, formazan growth assay
Assay: NCI AIDS Antiviral Assay
Conditions: for IC50: measured here: growth of uninfected CEM cells
Outline: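 Five concentrations of each compound were applied to infected and uninfected human CEM cells. Protection from HIV-1 was judged from growth measured with a soluble formazan assay.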

SMILES	outcome	EC50 [µM]	IC50 [µM]
C=C(C)C1CC=C(C)[C@](O)(C2(O)C[C@H](C(=C)C)CC=C2C)C1 (stereo partly specified)	inactive		
CO[C@H]1/C=C/O[C@@]2(C)Oc3c(C)c(O)c4c(O)c(c(/C=N/N5CCN(C)CC5)c(O)c4c3C2=O)NC(=O)/C(C)=C\C=C\[C@H](C)[C@H](O)[C@@H](C)[C@@H](O)[C@@H](C)[C@H](OC(C)=O)[C@@H]1C		> 151	93.3
COC(=O)C1c2c(c3ccccc3n2C(=O)OC)CCN2CCC1C(S(=O)(=O)c1ccccc1)C2=O (stereo unspecified)		363	447
O=C(O)CN(CCN(CC(=O)O)CC(=O)O)CC(=O)O		> 200	> 200
CCN(CC)CCOC(=O)c1ccc(N)cc1		> 200	> 200
O=C(O)CCSSc1ccc([N+](=O)[O-])cc1[N+](=O)[O-]		> 200	15.8
c1c(N2CCOCC2)ssc1=[N+]1CCOCC1	inactive		
CC(O)CNC1=CC(=O)C(=O)c2ccccc21 (stereo unspecified)		> 200	28.8
C[C@@H]1CC(O)C2(O)[C@@]13C[C@@H](OC(=O)[C@@H]3O)[C@](C)(O)[C@@]21COC1=O (stereo partly specified)	inactive		
CNc1ccc(F)cc1SSc1cc(F)ccc1NC		> 200	4.79
O=c1[nH]c2ccc(CC(=S)N3CCOCC3)cc2s1		> 200	> 200
O=C(NC(=S)NC(=O)c1cc(O)c(O)c(O)c1)c1cc(O)c(O)c(O)c1		> 200	4.27
C=CC[C@H](C[C@H](C[C@H](C[C@H](C[C@H](C[C@H](C[C@H](C[C@H](C[C@H](C[C@H](CCCCC)OC)OC)OC)OC)OC)OC)OC)OC)OC)OC		> 200	115
CCCCCCCCCCCCCCCCC(C(=O)O)C(=O)O		> 21.9	> 21.9
COC(=O)C(/C(=N/N)C(=O)Nc1cccc(O)c1)c1nc2ccccc2[nH]c1=O (stereo unspecified)		> 34.7	> 34.7
NC(=O)C(Cc1ccccc1)NC(=O)c1ccccc1SC(=O)CCCC[n+]1ccccc1 (stereo unspecified)		> 200	4.47

SMILES	outcome	EC50 [µM]	IC50 [µM]
CC1(C)N=C(/C(C#N)=[N+](/[O-])C(=O)c2ccccc2)C(C)(C)N1O		> 200	> 200
CCCCCCCCCC[C@@H](OC(C)=O)[C@@H]1CC[C@@H]([C@@H]2CC[C@@H]([C@@H](O)CC#C/C=C/CCCCCCC[C@@]3(Sc4ccccc4)C[C@H](C)OC3=O)O2)O1		> 200	182
O=C(c1ccccc1)N1OC12CCCCC2		> 200	51.3
COc1cc(/C=C/C(=O)OCC23CC[C@@]4(C(=O)O)CCC(C)[C@H](C)C4C2=CCC2[C@@]4(C)CC[C@H](O)C(C)(C)C4CC[C@]23C)ccc1O (stereo partly specified)		> 200	1.05
COc1ccc(/C=c2\[nH]c3nc(=O)c(N4CCOCC4)c(N)n3c2=O)cc1		> 200	> 200
CC(C)(CCc1nc2ccccc2[nH]1)C(=O)O		> 200	> 200
COC(=O)c1ccc(CO/N=C(\c2ccccc2)c2ccncc2)cc1		> 200	66.1
O=S(=O)(c1ccccc1)S(=O)(=O)c1ccccc1		> 47.9	> 47.9
O=C(NCCCCCCCCNC(=O)c1cc(-c2ccccc2)nc2ccccc12)c1cc(-c2ccccc2)nc2ccccc12		> 200	> 200
CCCC/C=C/C1Cc2ccccc2CN1S(=O)(=O)c1ccc(C)cc1 (stereo unspecified)		> 25.1	5.25
CC(C)c1ccc(/C=C2\C=Cc3ccccc32)cc1		> 40.7	> 40.7
S=c1[nH]nc2scnn12		> 200	> 200
CC(=O)C(=Cc1cccc(Cl)c1)C(C)=O		> 162	26.3
CCOC(=O)CCC(NC(=O)c1ccc(Oc2nc3c(N)cc(C(F)(F)F)cc3nc2-c2ccccc2)cc1)C(=O)OCC (stereo unspecified)		> 200	112
COC(=O)C(CSc1ccc([N+](=O)[O-])cc1[N+](=O)[O-])NC(=O)CNC(=O)c1ccccc1 (stereo unspecified) (Bz-Gly-[ξC](Dnp)-OMe)		> 15.5	> 15.5
O=C1N=NC(Cl)c2ccccc21 (stereo unspecified)		> 28.8	> 28.8

Reference: PubChem BioAssay AID179 (DTP/NCI, 2004)
